Legend:
Staphylococcus sp. = experiment: In vitro antibacterial evaluation: minimum inhibitory concentration (MIC), broth dilution method; format: cell-based
How it was run: (§1)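 Broth dilution per NCCLS M7-A2 in Muller-Hinton II […], inoculum 5×10^5 CFU/mL, antibiotic tested over 64-0.06 μg/mL. MIC is taken as the lowest concentration that inhibits growth. Panel includes recent clinical isolates resistant to methicillin, penicillin and/or vancomycin.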

Enterococcus sp. = experiment: as above; format: cell-based
How it was run: as §1

Escherichia coli = experiment: as above; format: cell-based
How it was run: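 Using Muller-Hinton II […] and an inoculum of 5×10^5 CFU/mL, antibiotic dilutions from 64 down to 0.06 μg/mL were tested following NCCLS M7-A2. The MIC is the lowest concentration inhibiting growth, including in methicillin-, penicillin- or vancomycin-resistant clinical isolates.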

Streptococcus sp. = experiment: as above; format: cell-based
How it was run: as §1

[1] = tested on: Staphylococcus aureus-SMITH (GC 4543); experiment: Acute lethal infection in mice (ED50); format: in vivo; settings: female CD-1 mice, intraperitoneal challenge, intravenous dose 30 min. after infection, 7 day survival ratios
How it was run: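 IP bacterial challenge, female CD-1 mice; inoculum lethal to untreated controls in 24-48 hr. IV dosing in saline or 5% dextrose 30 min post-infection, 5 mice/dose. ED50 from 7-day survival, 3 tests pooled.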

[2] = broth dilution, 5×10^5 CFU/mL, 18 hours at 35° C.
[3] = strain ATCC 29213, broth dilution, 18 hours at 35° C.
[4] = strain GC 1131, broth dilution, 18 hours at 35° C.
[5] = strain GC 3051, broth dilution, 18 hours at 35° C.
[6] = strain GC 3053, broth dilution, 18 hours at 35° C.
[7] = strain GC 4541, broth dilution, 18 hours at 35° C.
[8] = strain GC 4542, broth dilution, 18 hours at 35° C.
[9] = strain GC 4544, broth dilution, 18 hours at 35° C.
[10] = strain GC 4545, broth dilution, 18 hours at 35° C.
[11] = broth dilution, inoculum 5×10^5 CFU/mL, 18 hours at 35° C.
[12] = 5×10^5 CFU/mL, 18 hours at 35° C.

Cc1ccc(Oc2ccc(C3OCC4OC(OC5C(CO)OC(Oc6ccc(CC7NC(=O)C(C(C)c8ccccc8)NC(=O)CNC(=O)C(CO)NC(=O)C(C(O)C8CNC(=N)N8C8OC(CO)C(O)C(O)C8O)NC(=O)C(C(O)C8CNC(=N)N8)NC7=O)cc6)C(O)C5O)C(O)C(O)C4O3)cc2)cc1 (stereo not drawn) [Example 174, Cyclo[glycyl-β-methylphenylalanyl-O-[4-O-[4,6-O-[4-(4-methylphenoxy)benzylidene]hexopyranosyl]hexopyranosyl]tyrosyl-3-(2-iminoimidazolidin-4-yl)seryl-3-(3-hexopyranosyl-2-iminoimidazolidin-4-yl)serylseryl]]
0.08 mg/kg: median effective dose (ED50), Staphylococcus aureus-SMITH (GC 4543) [1]
1 µg/mL: MIC Coagulase Negative Staphylococcus (GC 4549) (Staphylococcus sp.; [2]) | MIC Coagulase Negative Staphylococcus (GC 4551) (Staphylococcus sp.; [2]) | MIC Staphylococcus aureus (GC 1131) (Staphylococcus sp.; [2]) | MIC Staphylococcus aureus (GC 4544) (Staphylococcus sp.; [2]) | MIC Staphylococcus aureus (GC 4545) (Staphylococcus sp.; [2]) | MIC Staphylococcus aureus-SMITH (GC 4543) (Staphylococcus sp.; [2]) | MIC Staphylococcus aureus (GC 1131) (Staphylococcus sp.; [4]) | MIC Staphylococcus aureus (GC 4544) (Staphylococcus sp.; [9]) | MIC Staphylococcus aureus (GC 4545) (Staphylococcus sp.; [10]) | MIC Enterococcus faecalis (GC 4552) (Enterococcus sp.; [11]) | MIC Enterococcus faecalis (GC 4553) (Enterococcus sp.; [11]) | MIC Enterococcus faecalis (GC 4554) (Enterococcus sp.; [11]) | MIC Enterococcus faecium (GC 2243) (Enterococcus sp.; [11]) | MIC Enterococcus faecium (GC 4556) (Enterococcus sp.; [11]) | MIC Enterococcus faecium (GC 2243) (Enterococcus sp.; strain GC 2243) | MIC Enterococcus faecalis (GC 4552) (Enterococcus sp.; strain GC 4552) | MIC Enterococcus faecalis (GC 4553) (Enterococcus sp.; strain GC 4553) | MIC Enterococcus faecalis (GC 4554) (Enterococcus sp.; strain GC 4554) | MIC Enterococcus faecium (GC 4556) (Enterococcus sp.; strain GC 4556)
4 µg/mL: MIC Escherichi coli (GC 4560) (Escherichia coli; strain GC 4560)
<0.06 µg/mL: MIC Streptococcus agalactiae (GC 4564) (Streptococcus sp.; [11]) | MIC Streptococcus pneumoniae (ATCC 6301) (Streptococcus sp.; [11]) | MIC Streptococcus pneumoniae (GC 1894) (Streptococcus sp.; [11]) | MIC Streptococcus pneumoniae (GC 4565) (Streptococcus sp.; [11]) | MIC Streptococcus pyogenes (GC 4563) (Streptococcus sp.; [11]) | MIC Streptococcus pneumoniae (ATCC 6301) (Streptococcus sp.; strain ATCC 6301) | MIC Streptococcus pneumoniae (GC 1894) (Streptococcus sp.; strain GC 1894) | MIC Streptococcus pyogenes (GC 4563) (Streptococcus sp.; strain GC 4563) | MIC Streptococcus agalactiae (GC 4564) (Streptococcus sp.; strain GC 4564) | MIC Streptococcus pneumoniae (GC 4565) (Streptococcus sp.; strain GC 4565)
0.5 µg/mL: MIC Coagulase Negative Staphylococcus (GC 4548) (Staphylococcus sp.; [2]) | MIC Coagulase Negative Staphylococcus (GC 6257) (Staphylococcus sp.; [2])
>64 µg/mL: MIC Escherichia coli (ATCC 25922) (Escherichia coli; strain ATCC 25922) | MIC Escherichia coli (GC 4559) (Escherichia coli; strain GC 4559)
2 µg/mL: MIC Coagulase Negative Staphylococcus (GC 4547) (Staphylococcus sp.; [2]) | MIC Staphylococcus aureus (ATCC 29213) (Staphylococcus sp.; [2]) | MIC Staphylococcus aureus (GC 3051) (Staphylococcus sp.; [2]) | MIC Staphylococcus aureus (GC 3053) (Staphylococcus sp.; [2]) | MIC Staphylococcus aureus (GC 4541) (Staphylococcus sp.; [2]) | MIC Staphylococcus aureus (GC 4542) (Staphylococcus sp.; [2]) | MIC Staphylococcus haemolyticus (GC 4546) (Staphylococcus sp.; [2]) | MIC Staphylococcus aureus (ATCC 29213) (Staphylococcus sp.; [3]) | MIC Staphylococcus aureus (GC 3051) (Staphylococcus sp.; [5]) | MIC Staphylococcus aureus (GC 3053) (Staphylococcus sp.; [6]) | MIC Staphylococcus aureus (GC 4541) (Staphylococcus sp.; [7]) | MIC Staphylococcus aureus (GC 4542) (Staphylococcus sp.; [8]) | MIC Enterococcus avium (GC 4558) (Enterococcus sp.; [11]) | MIC Enterococcus faecalis (ATCC 29212) (Enterococcus sp.; [11]) | MIC Enterococcus faecalis (GC 2242) (Enterococcus sp.; [11]) | MIC Enterococcus faecalis (GC 2691) (Enterococcus sp.; [11]) | MIC Enterococcus faecalis (GC 3059) (Enterococcus sp.; [11]) | MIC Enterococcus faecalis (GC 6189) (Enterococcus sp.; [11]) | MIC Enterococcus faecium (GC 4557) (Enterococcus sp.; [11]) | MIC Enterococcus faecalis (ATCC 29212) (Enterococcus sp.; strain ATCC 29212) | MIC Enterococcus faecalis (GC 2242) (Enterococcus sp.; strain GC 2242) | MIC Enterococcus faecalis (GC 2691) (Enterococcus sp.; strain GC 2691) | MIC Enterococcus faecalis (GC 3059) (Enterococcus sp.; strain GC 3059) | MIC Enterococcus faecium (GC 4557) (Enterococcus sp.; strain GC 4557) | MIC Enterococcus avium (GC 4558) (Enterococcus sp.; strain GC 4558) | MIC Enterococcus faecalis (GC 6189) (Enterococcus sp.; strain GC 6189)

COc1cccc(C2OCC3OC(OC4C(CO)OC(Oc5ccc(CC6NC(=O)C(C(C)c7ccccc7)NC(=O)CNC(=O)C(CO)NC(=O)C(C(O)C7CNC(=N)N7C7OC(CO)C(O)C(O)C7O)NC(=O)C(C(O)C7CNC(=N)N7)NC6=O)cc5)C(O)C4O)C(O)C(O)C3O2)c1 (stereo not drawn) [Example 137, Cyclo[glycyl-β-methylphenylalanyl-O-[4-O-[4,6-O-(3-methoxybenzylidene)hexopyranosyl]-hexopyranosyl]-tyrosyl-3-(2-iminoimidazolidin-4-yl)seryl-3-(3-hexopyranosyl-2-iminoimidazolidin-4-yl)serylseryl]]
0.5 to 1 µg/mL: MIC Coagulase Negative Staphylococcus (GC 4549) (Staphylococcus sp.; [2]) | MIC Coagulase Negative Staphylococcus (GC 4549) (Staphylococcus sp.; strain GC 4549, broth dilution, 18 hours at 35° C.)
64 µg/mL: MIC Escherichia coli (ATCC 25922) (Escherichia coli; [12])
1 µg/mL: MIC Coagulase Negative Staphylococcus (GC 6257) (Staphylococcus sp.; [2]) | MIC Staphylococcus haemolyticus (GC 4546) (Staphylococcus sp.; [2]) | MIC Staphylococcus haemolyticus (GC 4546) (Staphylococcus sp.; strain GC 4546, broth dilution, 18 hours at 35° C.) | MIC Coagulase Negative Staphylococcus (GC 6257) (Staphylococcus sp.; strain GC 6257, broth dilution, 18 hours at 35° C.) | MIC Escherichia coli (GC 4560) (Escherichia coli; [12])
1 to 2 µg/mL: MIC Coagulase Negative Staphylococcus (GC 4547) (Staphylococcus sp.; [2]) | MIC Coagulase Negative Staphylococcus (GC 4551) (Staphylococcus sp.; [2]) | MIC Staphylococcus aureus-SMITH (GC 4543) (Staphylococcus sp.; [2]) | MIC Staphylococcus aureus (ATCC 29213) (Staphylococcus sp.; strain ATCC 29213) | MIC Staphylococcus aureus (ATCC 29213) (Staphylococcus sp.; [3]) | MIC Staphylococcus aureus (GC 3051) (Staphylococcus sp.; strain GC 3051) | MIC Staphylococcus aureus (GC 3051) (Staphylococcus sp.; [5]) | MIC Staphylococcus aureus (GC 4541) (Staphylococcus sp.; strain GC 4541) | MIC Staphylococcus aureus (GC 4541) (Staphylococcus sp.; [7]) | MIC Staphylococcus aureus (GC 4542) (Staphylococcus sp.; strain GC 4542) | MIC Staphylococcus aureus (GC 4542) (Staphylococcus sp.; [8]) | MIC Staphylococcus aureus-SMITH (GC 4543) (Staphylococcus sp.; strain GC 4543, broth dilution, 18 hours at 35° C.) | MIC Coagulase Negative Staphylococcus (GC 4547) (Staphylococcus sp.; strain GC 4547, broth dilution, 18 hours at 35° C.) | MIC Coagulase Negative Staphylococcus (GC 4551) (Staphylococcus sp.; strain GC 4551, broth dilution, 18 hours at 35° C.)
0.24 mg/kg: median effective dose (ED50), Staphylococcus aureus-SMITH (GC 4543) [1]
<2 to 4 µg/mL: MIC Staphylococcus aureus (GC 4545) (Staphylococcus sp.; strain GC 4545)
2 µg/mL: MIC Staphylococcus aureus (GC 1131) (Staphylococcus sp.; strain GC 1131) | MIC Staphylococcus aureus (GC 1131) (Staphylococcus sp.; [4]) | MIC Staphylococcus aureus (GC 4544) (Staphylococcus sp.; strain GC 4544) | MIC Staphylococcus aureus (GC 4544) (Staphylococcus sp.; [9])
4 to 8 µg/mL: MIC Enterococccus avium (GC 4558) (Enterococcus sp.; [2]) | MIC Enterococccus faecalis (ATCC 29212) (Enterococcus sp.; [2]) | MIC Enterococccus faecalis (GC 2691) (Enterococcus sp.; [2]) | MIC Enterococccus faecalis (GC 3059) (Enterococcus sp.; [2]) | MIC Enterococccus faecalis (GC 4552) (Enterococcus sp.; [2]) | MIC Enterococccus faecalis (GC 4553) (Enterococcus sp.; [2]) | MIC Enterococccus faecalis (GC 4554) (Enterococcus sp.; [2]) | MIC Enterococccus faecium (GC 2243) (Enterococcus sp.; [2]) | MIC Enterococccus faecium (GC 4556) (Enterococcus sp.; [2]) | MIC Enterococcus faecalis (GC 2242) (Enterococcus sp.; [2])
<0.06 µg/mL: MIC Streptococcus pneumoniae (GC 1894) (Streptococcus sp.; [2])
0.25 µg/mL: MIC Streptococcus pneumoniae (GC 4565) (Streptococcus sp.; [2]) | MIC Streptococcus pyogenes (GC 4563) (Streptococcus sp.; [2])
0.5 to 2 µg/mL: MIC Coagulase Negative Staphylococcus (GC 4548) (Staphylococcus sp.; [2]) | MIC Coagulase Negative Staphylococcus (GC 4548) (Staphylococcus sp.; strain GC 4548, broth dilution, 18 hours at 35° C.)
0.5 µg/mL: MIC Streptococcus agalactiae (GC 4564) (Streptococcus sp.; [2])
0.12 µg/mL: MIC Streptococcus pneumonine (ATCC 6301) (Streptococcus sp.; [2])
2 to 4 µg/mL: MIC Staphylococcus aureus (GC 3053) (Staphylococcus sp.; strain GC 3053) | MIC Staphylococcus aureus (GC 3053) (Staphylococcus sp.; [6]) | MIC Staphylococcus aureus (GC 4545) (Staphylococcus sp.; [10]) | MIC Enterococccus faecium (GC 4557) (Enterococcus sp.; [2])
4 µg/mL: MIC Enterococccus faecalis (GC 6189) (Enterococcus sp.; [2])
